Assay results from PubChem BioAssay AID1850 (Southern Research Specialized Biocontainment Screening …, 2009).

System: Salmonella Typhi PhoP-promoter GFP reporter, fluorescence, 4 h
Assay: Inhibition of PhoP regulon, Salmonella typhi GFP reporter cells, confirmation, 4 h (AID 1850)

Row | Compound | IC50 [µM]
1 | COc1ccccc1N1CCN(Cc2ccc(O)c3ncccc23)CC1 | 38.2
2 | CN(C)CCCNc1cc(C(C)(C)C)nc2c(-c3ccc(Cl)cc3)cnn12 | 18.9
3 | CCn1cc(C(=O)O)c(=O)c2cc(F)c(N3CCN(C(=S)NC(=O)c4cccc(F)c4)CC3)cc21 | 18.6
4 | CCOC(=O)C1=C(c2ccccc2)NC(N)=NC1c1ccc(OCc2ccc(C(=O)OC)cc2)cc1 (stereo not given) | 34.4
5 | CN1CCN(CC(=O)N2CCn3c4c(c5cc(C6CCCCC6)ccc53)CCCC42)CC1 (stereo not given) | 32
6 | [O-][n+]1cccc2c(Br)cc(Br)c(O)c21 | 69.1
7 | Oc1ccc(C2NCc3ccccc3-n3cccc32)cc1Cl (stereo not given) | 150
8 | CCn1cc(C(=O)O)c(=O)c2cc(F)c(N3CCN(S(=O)(=O)c4ccc(NC(C)=O)cc4)CC3)cc21 | 103
9 | N/C(=N\OS(=O)(=O)c1ccc(Cl)cc1)c1cccnc1 | 26.6
10 | Nc1c2ccccc2nc2ccccc12 | 36.8
11 | O=C1c2ccccc2C2=Nc3ccccc3SC(c3ccccc3F)C12 (stereo not given) | 3.8
12 | O=S1(=O)Nc2c(ccc3cccnc23)-c2ccccc21 | 2.17
13 | Nc1nc2ccccc2n1Cc1ccc(Cl)c(Cl)c1 | 79.7
14 | O=C(N/N=C/c1cc(Cl)cc([N+](=O)[O-])c1O)C1CC1 | 106
15 | Nc1nonc1C(=O)N/N=C/c1cc(Br)ccc1O | 10.5
16 | O=C(CCN1CCN(c2ccccc2)CC1)c1ccc(Cl)cc1 | 64.9
17 | O=C(Nc1nc(-c2ccccn2)cs1)c1ccc(Cl)s1 | 33.2
18 | c1ccc2c(NCCc3c[nH]c4ccccc34)c3ccccc3nc2c1 | 36.3
19 | Cc1ccc(N/C(=C\C(=O)c2ccccc2)C(=O)O)cc1 | 30.9
20 | Cc1nc(N)nc(N)c1CCCc1ccc(Cl)c(Cl)c1 | 35.9
21 | CC1CCc2c(N3CCC(O)CC3)c(F)cc3c(=O)c(C(=O)O)cn1c23 (stereo not given) | 3.02
22 | N=c1n(CC(=O)c2ccc(Br)s2)c2ccccc2n1Cc1ccccc1 | 51.8
23 | C=C1c2cccc(O)c2C(O)=C2C(=O)[C@]3(O)C(O)=C(C(N)=O)C(=O)[C@@H](N(C)C)[C@@H]3[C@@H](O)[C@H]12 | 0.56
24 | Cc1ccc(NC(=O)CSC(N)=O)cc1Cl | 10.4

Row | Compound | IC50 [µM]
25 | CC1CCC(C(C)C)C(OC(=O)C[n+]2cc(-c3ccc(Cl)cc3)n3c2CCC3)C1 (stereo not given) | 38
26 | c1ccc(CNc2nc(N3CCN(Cc4ccccc4)CC3)nc3ccccc23)cc1 | 18.2
27 | Cc1ccc(-c2csc(N=C(N)N)n2)c(C)c1 | 50.1
28 | CCCCc1ccc(N/C(N)=N/c2nc(C)cc(C)n2)cc1 | 77.8
29 | CC(NCc1ccc(Cl)c(Cl)c1)C(O)c1ccccc1 (stereo not given) | 61.6
30 | CN1CCN(C2Cc3cc(F)ccc3Sc3ccc(Cl)cc32)CC1 (stereo not given) | 62.1
31 | O=C(CC(=O)c1ccccc1O)c1cccc(F)c1 | 20.8
32 | CCCCn1c(NS(=O)(=O)c2ccccc2)c(C(=O)OCC)c2nc3ccccc3nc21 | 35
33 | N=c1n(CCN2CCCCC2)c2ccccc2n1CC(=O)c1ccc(Cl)c(Cl)c1 | 34.9
34 | COc1ccc(CNCC(O)COc2ccc(C(C)(C)c3ccccc3)cc2)cc1 (stereo not given) | 20.9
35 | Nc1nonc1-n1nnc(C(=O)N/N=C/c2cc(Br)ccc2O)c1CSC1=NCCS1 | 105
36 | COc1cccc(Nc2nc(NCC3CCCO3)c3ccccc3n2)c1 (stereo not given) | 10.2
37 | CCCCCCCCCCCCCCCC[n+]1ccc(/C=N/O)cc1 | 26.2
38 | CNCC[C@H](Oc1cccc2ccccc12)c1cccs1 | 82
39 | O=C(CSc1ccccn1)N/N=C/c1c[nH]c2ccccc12 | 117
40 | c1ccc(Nc2nc(NCc3ccco3)c3ccccc3n2)cc1 | 5.97
41 | CCOC(=O)c1c(-c2ccccc2)oc2ccc(OCC(O)CNCCN(C)C)cc12 (stereo not given) | 61
42 | Fc1ccccc1CCNCc1ccccc1 | 34.1
43 | Oc1c(Br)cc(Br)cc1C=Nc1ccc2[nH]ncc2c1 | 27.6
44 | C=CCn1c(NS(=O)(=O)c2ccccc2)c(S(=O)(=O)c2ccc(C)cc2)c2nc3ccccc3nc21 | 50.4
45 | Nc1cc(Cl)c2nonc2c1[N+](=O)[O-] | 38.4
46 | Cc1ccc(C(=O)Sc2cccccc2=O)cc1 | 5.2
47 | COc1ccc(NC(=O)c2cc(Br)c(Br)s2)cn1 | 10.3
48 | c1ccc(CN2CCC(Nc3nc(-c4ccccc4)nc4ccccc34)CC2)cc1 | 35

Row | Compound | IC50 [µM]
49 | CCCCNCCCOc1cccc(Cl)c1Cl | 148
50 | COc1cc(Br)cc(/C=N/c2ncn[nH]2)c1O | 98.4
51 | CSc1ccc2c(c1)C(N1CCN(C)CC1)Cc1ccccc1S2 (stereo not given) | 39.7
52 | OCCN1CCN(CCCN2c3ccccc3Sc3ccc(C(F)(F)F)cc32)CC1 | 105
53 | NC(=O)SCC(=O)Nc1ccc(Cl)cc1 | 13.6
54 | COc1c(N2CCN(C(=S)Nc3ccccc3F)C(C)C2)c(F)cc2c(=O)c(C(=O)O)cn(C3CC3)c12 (stereo not given) | 1.63
55 | O=C(N/N=C/c1ccc([N+](=O)[O-])o1)C1CCCC1 | 35.5
56 | COc1ccc(C(=O)NC(=S)NNC(=O)c2cccc(C)c2)cc1 | 61.4
57 | Cc1ccc(C(=O)N2C(=S)C(c3ccc(F)cc3)=NC23CCN(C)CC3)cc1 | 119
58 | O=C(Nc1ccc(Cl)cc1)Nc1ccc2c(c1)N1CCN=C1S2 | 68.5
59 | COc1cc(/C=N/NC(=O)c2cncc(Br)c2)cc([N+](=O)[O-])c1O | 63.5
60 | COc1cccc(Nc2cc(C)nc3ccccc23)c1 | 69.6
61 | O=[N+]([O-])c1cc(/C=N/Nc2nc3ccccc3[nH]2)c(O)cc1O | 19.3
62 | CCC(C)(C)c1ccc(OCCCC[n+]2ccccc2)c(C(C)(C)CC)c1 | 19.2
63 | O=C(C[n+]1ccc(-c2ccccc2)cc1)Nc1ccc([N+](=O)[O-])cc1 | 40.5
64 | Cc1ccc(Nc2cc(C)nn2-c2nc(C)cc(=O)[nH]2)cc1 | 11.9
65 | CC(=O)NNC(=S)NC(=O)c1ccccc1 | 20.5
66 | Cc1nc2c(=O)n(C)c(=O)nc-2n(C)n1 | 1.29
67 | CCN(CCNCC(O)COc1ccccc1C(C)C)c1cccc(C)c1 (stereo not given) | 32.5
68 | CC1(C)N=C(N)NC(Nc2ccc(Br)cc2)=N1 | 38.8
69 | COc1cccc(NC2=NC3(CCCCC3)N=C(N)N2)c1 | 75.6
70 | Cc1cc(NS(=O)(=O)c2ccc(NC(=O)Nc3cccc(Cl)c3)cc2)no1 | 148
71 | CC(C)Oc1ccc(Cc2cnc(N)nc2N)cc1 | 67.5
72 | CN1CCN(C2=Cc3ccccc3Sc3cc(F)c(Cl)cc32)CC1 | 32.8

Row | Compound | IC50 [µM]
73 | Cc1cc(C)n(-c2nc(SCCN(C)C)c3c4c(sc3n2)CCCC4)n1 | 41.2
74 | c1ccc(CN2CCN(c3ncnc4c3[nH]c3ccccc34)CC2)cc1 | 37.8
75 | CCSc1ccc2c(c1)N(CCCN1CCN(C)CC1)c1ccccc1S2 | 45.5
76 | Clc1ccc(CN2CCc3c([nH]c4ccccc34)C2)cc1Cl | 36.1
77 | O=c1[nH]c(=S)ccn1C1OC(CO)C(O)C1O (stereo not given) | 28.6
78 | Cc1ccc(C(=O)NNC(=S)NC(=O)COc2ccccc2)cc1 | 115
79 | O=C1C=CC(=O)N1CCCCCCN1C(=O)C=CC1=O | 95.1
80 | CCCCCCCCCCCCCCCCn1cc[n+](C)c1 | 31.2
81 | O=C(CN1C2=NCCCN2c2ccccc21)c1ccc([N+](=O)[O-])cc1 | 104
82 | O=C(CCN1CCN(c2ccccc2)CC1)N/N=C/c1ccc([N+](=O)[O-])o1 | 138
83 | CCN1/C(=C/C(C)=C/c2sc3ccccc3[n+]2CC)Sc2ccccc21 | 4.88
84 | CCCOc1ccc(C(=O)NNC(=S)NC(C)=O)cc1 | 35.5
85 | CN1CC(C(=O)c2ccc(Cl)cc2)C(c2ccc(Cl)cc2Cl)C1 (stereo not given) | 37.4
86 | c1ccc(Nc2ccnc(Nc3ccccc3)n2)cc1 | 33.6
87 | C[N+]12CN3CN(CN(C3)C1)C2 | 86.3
88 | CCOc1cc(CNC(C)(C)CO)cc(Br)c1OCc1ccc(Cl)cc1Cl | 43.6
89 | Cc1cc([N+](=O)[O-])cc(/C=N\NC(=O)C2COc3ccccc3O2)c1O (stereo not given) | 50.7
90 | NC1=NC[C@H](c2ccccc2)N1CCc1cc(C(F)(F)F)cc(C(F)(F)F)c1 | 75
91 | C#CCOCCOCCOCCNc1nc(N2CCN(C(=O)CCCCCCCCCCNC(=O)[C@H](CCCCN)n3cc(CCO)nn3)CC2)nc(N2CCN(C(=O)CCCCCCCCCCNC(=O)[C@H](CCCCN)n3cc(C[C@@H](C)CC)nn3)CC2)n1 | 31.9
92 | O=[N+]([O-])c1ccc(O)c2ncccc12 | 0.96
93 | O=C(Nc1cccc(Br)c1)c1cc2ccccc2o1 | 25.4
94 | CN1CCC(OC(=O)c2ccc(Br)cc2)CC1 | 65.4
95 | CCCCCCCCCCC[N+](C)(C)CC/C=C1/c2ccccc2Sc2ccc(Cl)cc21 | 39
96 | O=C(Nc1c2ccccc2nc2ccccc12)C(Cl)(Cl)Cl | 63.5

Row | Compound | IC50 [µM]
97 | Fc1ccc(CCNCc2ccccc2Cl)cc1 | 73.4
98 | O=CN/N=C/c1c(O)ccc2ccccc12 | 35.4
99 | Cn1c(SCC(=O)N/N=C/c2ccc([N+](=O)[O-])s2)nnc1-c1ccc(Cl)cc1 | 35.8
100 | CCCc1nnc(NC(=O)c2cn(CC)c3cc(N4CCN(C)CC4)c(F)cc3c2=O)s1 | 66.8
101 | CCCCn1c(=N)n(CC(=O)c2ccc(Br)s2)c2ccccc21 | 51.4
102 | CC(=O)NC(c1ccc(Cl)cc1Cl)c1ccc2cccnc2c1O (stereo not given) | 95.5
103 | O=[N+]([O-])c1cc(Cl)c2cccnc2c1O | 3.05
104 | O=C1c2ccccc2NC(c2ccc(-c3ccc(Br)cc3)o2)N1O (stereo not given) | 35.8
105 | O[C@@H](c1cc(C(F)(F)F)nc2c(C(F)(F)F)cccc12)[C@H]1CCCCN1 | 40.3
106 | CC(C)N1CSC(=S)N(Cc2ccccc2)C1 | 108
107 | O=C(Nc1csc(Cl)c1)c1ccccc1 | 25.1
108 | Oc1cccc2ccc(Nc3ccccn3)nc12 | 9.36
109 | C1=C(CCNc2ncnc3c2[nH]c2ccccc23)CCCC1 | 30.7
110 | N#C/C(N=Nc1ccccc1O)=N\Nc1ccccc1O | 36.1
111 | O=C(CCC(=O)Nc1ccc(Cl)cc1Cl)N/N=C/c1ccc([N+](=O)[O-])o1 | 23.5
112 | Cc1ccc(C(c2cc(Cl)c3cccnc3c2O)N2CCN(C)CC2)cc1 (stereo not given) | 37
113 | Oc1ccc(C[C@H]2CNCCN2CCCCC2CCCCC2)cc1 | 64.5
114 | Cc1ccc(C)c(Nc2cc(C)nc3ccccc23)c1 | 51.5
115 | COc1cc(CNCCc2ccccc2)cc(Cl)c1OCc1ccccc1 | 35.9
116 | O=C(N/N=C/c1ccc([N+](=O)[O-])s1)c1ccccc1Br | 74
117 | O=[N+]([O-])c1ccc(/C=[N+](\[O-])CCO)o1 | 60.3
118 | CCCCCOc1ccc(C)cc1CN(CCCl)CCCl | 30.4
119 | CCN(CC)c1ccc(CNc2nc3ccccc3n2CCN2CCCCC2)cc1 | 52.1
120 | O=C1NCCN1c1ncc([N+](=O)[O-])s1 | 40.8
